For data set [1] the following is noted: 1.5 mg/kg/day s.c. infusion for 6 weeks; data not shown.
The conditions of data set [2]: continuous subcutaneous infusion.
Procedure: Mice surgery/procedures were performed according to the NIH guidelines and were approved by the Institutional Animal Care and Use Committee (IACUC) at Case Western Reserve University. C57BL/6 non-transgenic wild type mice (NTG mice), Prnp-TARDBP mice (TDP-43 WT Tg mice) and Prnp-TARDBP*A315T mice (TDP-43 A315T Tg mice) were purchased from the Jackson Laboratory (Bar Harbor, Me.). Mice were infused subcutaneously with mini-osmotic pumps (Alzet Model 2004, Cupertino, Calif.; flow rate of 0.25 μl/hour). One day before implantation, mini-osmotic pumps were filled with 200 μl PBS containing cPM or PM1 peptides (0.5 mg/kg/Day) followed by pump incubation in PBS at 37 overnight according to the manufacturer's instructions. For surgery, male mice were anesthetized with avertin. A small incision was made at the back of mouse and mini-osmotic pump were implanted subcutaneously. After treatment, mice were deeply anesthetized with avertin and transcardially perfused with cold PBS and spinal cord and brain tissues were collected followed by fractionation, western blot or immunostaining.
For a further data set, the system named is cells. The note with it: data not shown.

Where two headings read alike, the source gives them in different places. Ends that are not written are not given here.

In the case of YGRKKRRQRRRAQFPGACGL [PM1], the “reaching the central nervous system” value in data set [1] was “reached the central nervous system”. Besides, in data set [2], the “detection in mitochondrial compartments” value is “detected in all mitochondrial compartments” and the “reaching the central nervous system” value is on record as “reached the central nervous system”.
YGRKKRRQRRRSKGFGFVRF [PM3]: the “toxic effect on cells” value in the data set with cells is on record as “mild toxic effect”.

Values taken from patent US11124553B2, “TDP-43 mitochondrial localization inhibitor for the treatment of neurogenerative disease” (Case Western Reserve University, priority 2016, dated 2021).
